Columns and labels:
22Rvl = assay: In vitro cell proliferation assay (MTS); type: cell-based, human; conditions: 22Rvl cells
Experimental: (§1) The IC50 for each cell line was assessed in by MTS assays as described in Example 1 (Methods). […] The IC50 unit is μM.
(§2) All cell lines were obtained from the American Type Culture Collection (Manassas, Va.), except DUCaP, which was obtained from Dr. Kenneth Pienta at University of Michigan. PWR1E and MDAPCa2b cells were grown in BRFF-HPC1 serum-free medium (AthenaES, Baltimore, Md.), and all other cells were cultured in RPMI 1640 supplemented with 10% fetal bovine serum, 100 IU/ml penicillin, and […] (Invitrogen, Carlsbad, Calif.). DUCaP cells were maintained in the presence of an immortalized mouse fibroblast cell line, which formed a layer beneath DUCaP cells that easily dislodged. Cells were incubated at 37° C. with circulation of 5% CO2.
(§3) The optimum number of cells to seed in 96-well plates to achieve linearity were determined in pilot experiments. Cells were plated at density of 2000-5000 cells/well into 96-well plates and cultured overnight. Cells were then treated with dasatinib at serially diluted concentrations. Three days later, MTS was added to the medium and quantified on a SPECTRAMAX® photometric plate reader (Molecular Devices, Sunnyvale, Calif.) at 490 nm. The results were plotted against drug concentrations and IC50s were calculated using Prism4 software (GraphPad, San Diego, Calif.). The IC50 was the concentration of dasatinib that would reduce cell proliferation by 50% compared to control. Minimum three independent assays were performed for each cell line. […] In the latter case, the concentration of dasatinib that was able to consistently reduce cell proliferation was used as IC50. […] Dasatinib stock, dissolved in DMSO, was 10 mg/ml.

DUCaP = assay: In vitro cell proliferation assay (MTS); type: cell-based, human; conditions: DUCaP cells
Experimental: as §1, §2, §3

HPV10 = assay: In vitro cell proliferation assay (MTS); type: cell-based, human; conditions: HPV10 cells
Experimental: as §1, §2, §3

LNCaP = assay: In vitro cell proliferation assay (MTS); type: cell-based, human; conditions: LNCaP cells
Experimental: as §1, §2, §3

MDAPCa2b = assay: In vitro cell proliferation assay (MTS); type: cell-based, human; conditions: MDAPCa2b cells
Experimental: as §1, §2, §3

NB11 = assay: In vitro cell proliferation assay (MTS); type: cell-based, human; conditions: NB11 cells
Experimental: as §1, §2, §3

NB26 = assay: In vitro cell proliferation assay (MTS); type: cell-based, human; conditions: NB26 cells
Experimental: as §1, §2, §3

PC3 = assay: In vitro cell proliferation assay (MTS); type: cell-based, human; conditions: PC3 cells
Experimental: as §1, §2, §3

PWR1E = assay: In vitro cell proliferation assay (MTS); type: cell-based, human; conditions: PWR1E cells
Experimental: as §1, §2, §3

RWPE1 = assay: In vitro cell proliferation assay (MTS); type: cell-based, human; conditions: RWPE1 cells
Experimental: as §1, §2, §3

RWPE2 = assay: In vitro cell proliferation assay (MTS); type: cell-based, human; conditions: RWPE2 cells
Experimental: as §1, §2, §3

W99 = assay: In vitro cell proliferation assay (MTS); type: cell-based, human; conditions: W99 cells
Experimental: as §1, §2, §3

WPMY1 = assay: In vitro cell proliferation assay (MTS); type: cell-based, human; conditions: WPMY1 cells
Experimental: as §1, §2, §3

16 prostate cell lines = assay: IC50 grouping of the panel of prostate cell lines (MTS); type: cell-based; conditions: Homo sapiens
Experimental: Based on the IC50s, cell lines were classified into two groups: 11 cell lines with IC50 lower than 200 nM were designated as sensitive group, and 5 cell lines with IC50 at least greater than 2 μM were considered as resistant group. The separation of these two groups was quite well, and the sensitive/resistant demarcation of 200 nM is within the peak range of BMS-A plasma concentrations in patients treated with the doses near the maximum tolerated dose.
The effect of BMS-A (dasatinib) treatment on cell proliferation was measured using a MTS colorimetric method (Promega, Madison, Wis.). The optimum number of cells to seed in 96-well plates to achieve linearity were determined in pilot experiments. Cells were plated at density of 2000-5000 cells/well into 96-well plates and cultured overnight. Cells were then treated with dasatinib at serially diluted concentrations. Three days later, MTS was added to the medium and quantified on a SPECTRAMAX® photometric plate reader (Molecular Devices, Sunnyvale, Calif.) at 490 nm. The results were plotted against drug concentrations and IC50s were calculated using Prism4 software (GraphPad, San Diego, Calif.). […] The mean±standard deviation (SD) were calculated except for cell lines that were highly resistant to the compound where accurate IC50s were hard to obtain. […]

[1] = Homo sapiens, 72 h, MTS, three days, highly resistant: concentration that consistently reduced proliferation used as IC50, read-out: mean IC50 (μM) to BMS-A
[2] = Homo sapiens, 72 h, MTS, three days, read-out: mean IC50 (μM) to BMS-A

`Cc1nc(Nc2ncc(C(=O)Nc3c(C)cccc3Cl)s2)cc(N2CCN(CCO)CC2)n1` [BMS-A, N-(2-chloro-6-methylphenyl)-2-[[6-[4-(2-hydroxyethyl)-1-piperazinyl]-2-methyl-4-pyrimidinyl]amino]-5-thiazolecarboxamide] was tested, and the Classification (22Rvl; based on IC50) was “Resistant (those having an IC50 above 0.2 μm were considered to be resistant)”, the IC50 (22Rvl; [1]) was 2 µM and the Classification (DUCaP; based on IC50) was “Resistant (those having an IC50 above 0.2 μm were considered to be resistant)”. The IC50 (DUCaP; [1]) was 2.5 µM, the Classification (HPV10; based on IC50) was “Sensitive (The cell lines with an IC50 lower than 0.2 μm were defined as sensitive to the compound)” and the IC50 (HPV10; [2]) was 0.058 µM. The IC50 (LNCaP; [2]) was 0.068 µM, the Classification (LNCaP; based on IC50) was “Sensitive (The cell lines with an IC50 lower than 0.2 μm were defined as sensitive to the compound)” and the IC50 (MDAPCa2b; Homo sapiens, MDA-PCa-2b, 72 h, MTS, three days, highly resistant: concentration that consistently reduced proliferation used as IC50, read-out: mean IC50 (μM) to BMS-A) was 2.5 µM. For the same molecule, the Classification (MDAPCa2b; based on IC50) was “Resistant (those having an IC50 above 0.2 μm were considered to be resistant)”, the IC50 (NB11; [2]) was 0.163 µM and the Classification (NB11; based on IC50) was “Sensitive (The cell lines with an IC50 lower than 0.2 μm were defined as sensitive to the compound)”. The IC50 (NB26; [2]) was 0.139 µM, the Classification (NB26; based on IC50) was “Sensitive (The cell lines with an IC50 lower than 0.2 μm were defined as sensitive to the compound)” and the IC50 (PC3; Homo sapiens, PC-3, 72 h, MTS, three days, read-out: mean IC50 (μM) to BMS-A) was 0.051 µM. For the same molecule, the Classification (PC3; based on IC50) was “Sensitive (The cell lines with an IC50 lower than 0.2 μm were defined as sensitive to the compound)”, the IC50 (PWR1E; Homo sapiens, PWR-1E, 72 h, MTS, three days, read-out: mean IC50 (μM) to BMS-A) was 0.145 µM and the Classification (PWR1E; based on IC50) was “Sensitive (The cell lines with an IC50 lower than 0.2 μm were defined as sensitive to the compound)”. The IC50 (RWPE1; Homo sapiens, RWPE-1, 72 h, MTS, three days, read-out: mean IC50 (μM) to BMS-A) was 0.12 µM, the Classification (RWPE1; based on IC50) was “Sensitive (The cell lines with an IC50 lower than 0.2 μm were defined as sensitive to the compound)” and the IC50 (RWPE2; [2]) was 0.151 µM. For the same molecule, the Classification (RWPE2; based on IC50) was “Sensitive (The cell lines with an IC50 lower than 0.2 μm were defined as sensitive to the compound)”, the IC50 (W99; [2]) was 0.199 µM and the Classification (W99; based on IC50) was “Sensitive (The cell lines with an IC50 lower than 0.2 μm were defined as sensitive to the compound)”. For the same molecule, the IC50 (WPMY1; Homo sapiens, WPMY-1, 72 h, MTS, three days, highly resistant: concentration that consistently reduced proliferation used as IC50, read-out: mean IC50 (μM) to BMS-A) was 2.5 µM, the Classification (WPMY1; based on IC50) was “Resistant (those having an IC50 above 0.2 μm were considered to be resistant)” and the IC50 (16 prostate cell lines; 5 cell lines considered as resistant group) was greater than 2000 nM. For the same molecule, the IC50 (16 prostate cell lines; 11 cell lines designated as sensitive group) was less than 200 nM.

Source: US20100120788A1, “IDENTIFICATION OF POLYNUCLEOTIDES FOR […] OF COMPOUNDS THAT […] WITH AND/OR MODULATE PROTEIN TYROSINE KINASES AND/OR PROTEIN TYROSINE KINASE […] IN PROSTATE CELLS” (Bristol-Myers Squibb Company, priority 2007, published 2010)
